Measurements taken from ChEMBL document CHEMBL1201862, “PubChem BioAssay data set” (2004).
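Where inhibition never reached the appropriate level, the endpoint shown equals the highest concentration tested. Otherwise, values were interpolated linearly from a five-concentration, 48-hour dose response in 96-well plates. GI50 is the concentration that inhibits growth by half.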 Calls of active or inactive are those of the source. Rule as the data show it: active = GI50 up to about 1.1 µM and inactive = higher.

Legend:
Assay in all cases: NCI tumour cell line growth inhibition, 48 h
COLO 205 = test system: COLO 205
HCT-116 = test system: HCT-116
HL-60 = test system: HL-60
HT-29 = test system: HT-29
K562 = test system: K562
LOX IMVI = test system: LOX IMVI
MDA-N = test system: MDA-N
MOLT-4 = test system: MOLT-4
NCI-H460 = test system: NCI-H460
OVCAR-4 = test system: OVCAR-4
SF-268 = test system: SF-268
SF-295 = test system: SF-295
SF-539 = test system: SF-539
SW-620 = test system: SW-620
TK-10 = test system: TK-10
U-251 = test system: U-251
UACC-257 = test system: UACC-257

| SMILES | GI50 (COLO 205) | GI50 (HCT-116) | GI50 (HL-60) | GI50 (HT-29) | GI50 (K562) | GI50 (LOX IMVI) | GI50 (MDA-N) | GI50 (MOLT-4) | GI50 (NCI-H460) | GI50 (OVCAR-4) | GI50 (SF-268) | GI50 (SF-295) | GI50 (SF-539) | GI50 (SW-620) | GI50 (TK-10) | GI50 (U-251) | GI50 (UACC-257) |
| --- | --- | --- | --- | --- | --- | --- | --- | --- | --- | --- | --- | --- | --- | --- | --- | --- | --- |
| Nc1nc(N)c2c(Cl)c(CNc3ccc(C(=O)NC(CC(=O)O)C(=O)O)cc3)ccc2n1 (stereo not given) | < 0.01 µM (active) | 10.7 µM (inactive) | < 0.01 µM (active) | < 0.01 µM (active) | < 0.01 µM (active) | < 0.01 µM (active) | < 0.01 µM (active) | < 0.01 µM (active) | < 0.01 µM (active) | 3.69 µM (inactive) | < 0.01 µM (active) | < 0.01 µM (active) | < 0.01 µM (active) | < 0.01 µM (active) | < 0.01 µM (active) | < 0.01 µM (active) | – |
| CCOc1cc(NC(C)=O)ccc1C(=O)NN1C(=O)/C(=C/c2cc(OC)c(OC)c(OC)c2)N=C1c1ccccc1 | > 100 µM (inactive) | > 100 µM (inactive) | > 100 µM (inactive) | > 100 µM (inactive) | > 100 µM (inactive) | > 100 µM (inactive) | > 100 µM (inactive) | > 100 µM (inactive) | 91.6 µM (inactive) | > 100 µM (inactive) | 86.9 µM (inactive) | > 100 µM (inactive) | > 100 µM (inactive) | > 100 µM (inactive) | – | – | > 100 µM (inactive) |
| COc1c(O)cc2c(c1O)C(=O)/C(=C/c1ccc(O)cc1)CO2 | 17.6 µM (inactive) | – | 30.1 µM (inactive) | 20.1 µM (inactive) | 28.9 µM (inactive) | 21.7 µM (inactive) | 28.7 µM (inactive) | 36 µM (inactive) | 30.1 µM (inactive) | 20.1 µM (inactive) | 29.1 µM (inactive) | 37.7 µM (inactive) | 20.5 µM (inactive) | 26.7 µM (inactive) | 35.5 µM (inactive) | 33.7 µM (inactive) | 31.9 µM (inactive) |
| CCOC(=O)c1cc2c([nH]1)c(O)cc1c2ccn1Cc1ccccc1 | 21.4 µM (inactive) | 11.6 µM (inactive) | 13 µM (inactive) | 16.6 µM (inactive) | 8.34 µM (inactive) | 14.4 µM (inactive) | 15.3 µM (inactive) | 1.91 µM (inactive) | 19.5 µM (inactive) | 19.9 µM (inactive) | 19.5 µM (inactive) | 15.8 µM (inactive) | 19.4 µM (inactive) | 18 µM (inactive) | – | 16.7 µM (inactive) | 19.7 µM (inactive) |
| Cc1ccc(NC=O)c(-c2c(N)[nH]c(=S)[nH]c2=O)c1 | > 100 µM (inactive) | > 100 µM (inactive) | > 100 µM (inactive) | > 100 µM (inactive) | > 100 µM (inactive) | > 100 µM (inactive) | > 100 µM (inactive) | > 100 µM (inactive) | – | – | > 100 µM (inactive) | > 100 µM (inactive) | > 100 µM (inactive) | > 100 µM (inactive) | > 100 µM (inactive) | – | > 100 µM (inactive) |
| CCCCN1C(=O)CS/C1=N/Nc1nc2c([nH]1)c(=O)n(C)c(=O)n2C | > 100 µM (inactive) | 15.2 µM (inactive) | > 100 µM (inactive) | 23.9 µM (inactive) | 30.5 µM (inactive) | – | 14.6 µM (inactive) | 21.8 µM (inactive) | 13.7 µM (inactive) | 19.5 µM (inactive) | 7.74 µM (inactive) | 7.35 µM (inactive) | 37.8 µM (inactive) | – | > 100 µM (inactive) | 15 µM (inactive) | > 100 µM (inactive) |
| COC(=O)CC1CN(C(=O)OCc2ccccc2)C(C)(C)O1 (stereo not given) | > 100 µM (inactive) | > 100 µM (inactive) | 89.9 µM (inactive) | – | > 100 µM (inactive) | > 100 µM (inactive) | > 100 µM (inactive) | 80.2 µM (inactive) | > 100 µM (inactive) | > 100 µM (inactive) | – | > 100 µM (inactive) | > 100 µM (inactive) | > 100 µM (inactive) | 56.9 µM (inactive) | > 100 µM (inactive) | > 100 µM (inactive) |
| COC(=O)C1=C(O)C(C(=O)OC)C2CC(=O)CC1C2(C)C (stereo not given) | > 100 µM (inactive) | > 100 µM (inactive) | > 100 µM (inactive) | > 100 µM (inactive) | > 100 µM (inactive) | – | > 100 µM (inactive) | > 100 µM (inactive) | > 100 µM (inactive) | > 100 µM (inactive) | > 100 µM (inactive) | > 100 µM (inactive) | > 100 µM (inactive) | > 100 µM (inactive) | > 100 µM (inactive) | > 100 µM (inactive) | > 100 µM (inactive) |
| N#Cc1ccccc1NC(=O)C(=O)c1c(O)c2ccccc2oc1=O | – | > 100 µM (inactive) | > 100 µM (inactive) | > 100 µM (inactive) | > 100 µM (inactive) | > 100 µM (inactive) | > 100 µM (inactive) | – | > 100 µM (inactive) | > 100 µM (inactive) | > 100 µM (inactive) | > 100 µM (inactive) | > 100 µM (inactive) | > 100 µM (inactive) | > 100 µM (inactive) | > 100 µM (inactive) | > 100 µM (inactive) |
| COc1ccc(C2SCC(=O)N2NC(=O)c2ccc(NC(C)=O)cc2)c(OC)c1 (stereo not given) | > 100 µM (inactive) | > 100 µM (inactive) | > 100 µM (inactive) | > 100 µM (inactive) | > 100 µM (inactive) | – | > 100 µM (inactive) | > 100 µM (inactive) | > 100 µM (inactive) | > 100 µM (inactive) | > 100 µM (inactive) | > 100 µM (inactive) | > 100 µM (inactive) | > 100 µM (inactive) | > 100 µM (inactive) | 33.6 µM (inactive) | > 100 µM (inactive) |
| CC1OC2OC3C(OCC(O)C3O)OC(=O)[C@]34CCC(C)(C)CC3C3=CCC5[C@@]6(C)C[C@H](O)[C@H](OC7OC(CO)C(O)C(O)C7OC7OCC(OC(=O)CC(C)(O)CC(=O)OC1C(O)C2O)C(O)C7O)[C@@](C)(CO)C6CC[C@@]5(C)[C@]3(C)CC4 (stereo not given in full) | 1.89 µM (inactive) | 5.75 µM (inactive) | 1.82 µM (inactive) | 2.73 µM (inactive) | – | 9.86 µM (inactive) | 4.05 µM (inactive) | 8.89 µM (inactive) | 11.6 µM (inactive) | – | 2.45 µM (inactive) | 3.42 µM (inactive) | 12.7 µM (inactive) | 8.85 µM (inactive) | 8.79 µM (inactive) | 3.48 µM (inactive) | 2.33 µM (inactive) |
| CC1=CC(=O)/C(=C/NC(=S)c2ccncc2)C(=O)O1 | > 100 µM (inactive) | > 100 µM (inactive) | > 100 µM (inactive) | > 100 µM (inactive) | – | > 100 µM (inactive) | > 100 µM (inactive) | > 100 µM (inactive) | > 100 µM (inactive) | > 100 µM (inactive) | > 100 µM (inactive) | > 100 µM (inactive) | > 100 µM (inactive) | > 100 µM (inactive) | > 100 µM (inactive) | > 100 µM (inactive) | > 100 µM (inactive) |
| C/C(=C\COc1ccc2ccc(=O)oc2c1)CCC(=O)C(C)(C)O | 20.7 µM (inactive) | 15.6 µM (inactive) | 15.2 µM (inactive) | 23.2 µM (inactive) | 16.2 µM (inactive) | 13.8 µM (inactive) | 25.6 µM (inactive) | 22.9 µM (inactive) | 31.8 µM (inactive) | 51.9 µM (inactive) | 41.8 µM (inactive) | 38.4 µM (inactive) | 21 µM (inactive) | 19.5 µM (inactive) | 39.3 µM (inactive) | 19.8 µM (inactive) | 28 µM (inactive) |
| CCOC(=O)Cc1csc2[n+]1C(=O)/C(=C/c1cccc(OC)c1O)S2 | 78.5 µM (inactive) | 45.5 µM (inactive) | 45.8 µM (inactive) | 39 µM (inactive) | – | 51.8 µM (inactive) | 40.1 µM (inactive) | 4.43 µM (inactive) | 41.9 µM (inactive) | 64.4 µM (inactive) | – | 73.5 µM (inactive) | 60.8 µM (inactive) | > 100 µM (inactive) | 46.2 µM (inactive) | 0.192 µM (active) | 61.8 µM (inactive) |
| COc1cc([N+](=O)[O-])c(S(=O)(=O)O)cc1-n1nc(-c2ccccc2)n[n+]1-c1cc(S(=O)(=O)[O-])c([N+](=O)[O-])cc1OC | > 100 µM (inactive) | > 100 µM (inactive) | > 100 µM (inactive) | > 100 µM (inactive) | > 100 µM (inactive) | > 100 µM (inactive) | > 100 µM (inactive) | > 100 µM (inactive) | > 100 µM (inactive) | > 100 µM (inactive) | > 100 µM (inactive) | > 100 µM (inactive) | > 100 µM (inactive) | > 100 µM (inactive) | – | > 100 µM (inactive) | > 100 µM (inactive) |
| O=S(=O)(O)c1cc(/N=[N+](\[O-])c2cc(S(=O)(=O)O)c3ccccc3c2)cc2ccccc12 | > 100 µM (inactive) | > 100 µM (inactive) | 30 µM (inactive) | > 100 µM (inactive) | 30.7 µM (inactive) | 25.2 µM (inactive) | 20 µM (inactive) | – | > 100 µM (inactive) | 20.5 µM (inactive) | > 100 µM (inactive) | 35.6 µM (inactive) | 16.8 µM (inactive) | 31.8 µM (inactive) | > 100 µM (inactive) | 60.4 µM (inactive) | 51.1 µM (inactive) |
| Oc1ccc(-c2nc3ccc(Br)cc3s2)cc1 | 15.9 µM (inactive) | 20 µM (inactive) | 17 µM (inactive) | 18.2 µM (inactive) | 23.5 µM (inactive) | 15.5 µM (inactive) | 25.6 µM (inactive) | 33.3 µM (inactive) | 21.7 µM (inactive) | – | 16.3 µM (inactive) | 17.6 µM (inactive) | 14.8 µM (inactive) | 32.2 µM (inactive) | 17.3 µM (inactive) | 20.4 µM (inactive) | 21.4 µM (inactive) |
